The experiment concerns Acinetobacter baumannii ATCC17978. Kind of experiment: Antimicrobial susceptibility testing: 90% growth inhibitory concentration (IC90) determination, Iso-Sensitest broth. Format: cell-based. An outline of the steps: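 A. baumannii ATCC17978 grown in Iso-Sensitest broth across 10 compound concentrations at 35±2 °C.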
[1] abbreviates: 90% growth inhibitory concentration, Acinetobacter baumannii ATCC17978, Iso-Sensitest broth, OD 600 nm over 16 h, read-out: ATCC17978 IC90.
Where [2] appears, read: Acinetobacter baumannii, ATCC17978, 16 h, read-out: ATCC17978 IC90, 90% growth inhibitory concentration, Acinetobacter baumannii ATCC17978, Iso-Sensitest broth, OD 600 nm over 16 h.

This passage reports IC90 results from patent US20230011869A1 (Hoffmann-La Roche Inc., priority 2018, published 2023).

Counter-ions that a name gives are not always drawn. Like-named read-outs stand apart in the source and are kept apart here.

For `COc1ccc(-c2cnc3c(Nc4ccc(C(=O)N5CCNC(CO)C5)c(C)c4)nccn23)cc1F` (stereo not shown) [Example 422, [4-[[3-(3-fluoro-4-methoxyphenyl)imidazo[1,2-a]pyrazin-8-yl]amino]-2-methylphenyl]-[3-(hydroxymethyl)piperazin-1-yl]methanone], the IC90 under setting [1] came to 1100 nM.

Turning to `Cc1cc(Nc2nccn3c(-c4ccc(OC(F)F)cc4)cnc23)ccc1C(=O)N1CCC(CCN)CC1` [Example 3, (4-(2-Aminoethyl)piperidin-1-yl)(4-((3-(4-(difluoromethoxy)phenyl)imidazo[1,2-a]pyrazin-8-yl)amino)-2-methylphenyl)methanone hydrochloride], under setting [1], the IC90 came out at 110 nM. Turning to `CCC[C@H](N)C(=O)N1CCN(C(=O)c2ccc(Nc3nccn4c(-c5ccc(OC(F)F)cc5)cnc34)cc2C)CC1` [Example 343, (2S)-2-amino-1-[4-[4-[[3-[4-(difluoromethoxy)phenyl]imi-dazo[1,2-a]pyrazin-8-yl]amino]-2-methylbenzoyl]piperazin-1-yl]pentan-1-one], the IC90 under setting [2] was 560 nM.

As for `COc1ccc(-c2cnc3c(Nc4ccc(C(=O)N5CCC(C(=O)NCC6(O)CCNC6)CC5)c(C)c4)nccn23)cc1F` (stereo not shown) [Example 54, 1-(4-((3-(3-fluoro-4-methoxyphenyl)imidazo[1,2-a]pyrazin-8-yl)amino)-2-methylbenzoyl)-N-((3-hydroxypyrrolidin-3-yl)methyl)piperidine-4-carboxamide 2,2,2-trifluoroacetate], the IC90 under setting [2] amounted to 370 nM. Take `COc1ccc(-c2cnc3c(Nc4ccc(C(=O)N5CCC(C(=O)NCC6CNC6)CC5)c(C)c4)nccn23)cc1F` [Example 65, N-(azetidin-3-ylmethyl)-1-(4-((3-(3-fluoro-4-methoxyphenyl)imidazo[1,2-a]pyrazin-8-yl)amino)-2-methylbenzoyl)piperidine-4-carboxamide]: the IC90 under setting [1] amounted to 250 nM.

In the case of `Cc1cc(Nc2nccn3c(-c4ccc(Oc5ccncc5)c(F)c4F)cnc23)ccc1C(=O)N1CCC(CN)CC1` [Example 123, [4-(aminomethyl)-1-piperidyl]-[4-[[3-[2,3-difluoro-4-(4-pyridyloxy)phenyl]imidazo[1,2-a]pyrazin-8-yl]amino]-2-methyl-phenyl]methanone], the IC90 under setting [1] was determined as 760 nM. As to `Cc1cc(Nc2nccn3c(-c4ccc(OC(F)F)cc4)cnc23)ccc1C(=O)N1CCN(C(=O)N2CCNC(CO)C2)CC1` (stereo not shown) [Example 133, [4-[[3-[4-(difluoromethoxy)phenyl]imidazo[1,2-a]pyrazin-8-yl]amino]-2-methyl-phenyl]-[4-[3-(hydroxymethyl)piperazine-1-carbonyl]piperazin-1-yl]methanone hydrochloride], the IC90 under setting [1] amounted to 230 nM.

For `COc1ccc(-c2cnc3c(Nc4ccc(C(=O)N5CCN(C(=O)C6(F)CCNCC6)CC5)c(C)c4)nccn23)c(F)c1F` [Example 477, [4-[[3-(2,3-difluoro-4-methoxyphenyl)imidazo[1,2-a]pyrazin-8-yl]amino]-2-methylphenyl]-[4-(4-fluoropiperidine-4-carbonyl)piperazin-1-yl]methanone; hydrochloride], under setting [2], the IC90 amounted to 120 nM. Take `N#CCOc1ccc(-c2cnc3c(Nc4ccc(C(=O)N5CCC(C(=O)OCC6CNCCN6)CC5)c(Cl)c4)nccn23)c(Cl)c1F` (stereo not shown) [Example 96, piperazin-2-ylmethyl 1-[2-chloro-4-[[3-[2-chloro-4-(cyanomethoxy)-3-fluoro-phenyl]imidazo[1,2-a]pyrazin-8-yl]amino]benzoyl]piperidine-4-carboxylate trifluoroacetate]: under setting [1], the IC90 was 290 nM. For the compound `Cc1cc(Nc2nccn3c(-c4ccc(OC(F)F)cc4)cnc23)ccc1C(=O)N1CCC(C(=O)N[C@@H]2CCNC2)CC1` [Example 263, 1-[4-[[3-[4-(difluoromethoxy)phenyl]imi-dazo[1,2-a]pyrazin-8-yl]amino]-2-methylbenzoyl]-N-[(3R)-pyrrolidin-3-yl]piperidine-4-carboxamide; hydrochloride], the IC90 under setting [2] was 1100 nM.

On to `CCN1CCN(C2CCN(C(=O)c3ccc(Nc4nccn5c(-c6ccc(OC(F)F)cc6)cnc45)cc3C)CC2)CC1` [Example 367, [4-[[3-[4-(difluoromethoxy)phenyl]imi-dazo[1,2-a]pyrazin-8-yl]amino]-2-methylphenyl]-[4-(4-ethylpiperazin-1-yl)piperidin-1-yl]methanone], for which the IC90 under setting [2] worked out at 690 nM.

Regarding `COc1ccc(-c2cnc3c(Nc4ccc(C(=O)N5CCC(CN)CC5)c(C)c4)nccn23)c(Cl)c1F` [Example 104, [4-(aminomethyl)-1-piperidyl]-[4-[[3-(2-chloro-3-fluoro-4-methoxy-phenyl)imidazo[1,2-a]pyrazin-8-yl]amino]-2-methyl-phenyl]methanone hydrochloride], under setting [2], the IC90 is 180 nM. As for `Cc1cc(Nc2nccn3c(-c4ccc(OC(F)F)cc4)cnc23)ccc1C(=O)N1CCN(C(=O)C2(C)CNC2)CC1` [Example 267, [4-[[3-[4-(difluoromethoxy)phenyl]imi-dazo[1,2-a]pyrazin-8-yl]amino]-2-methylphenyl]-[4-(3-methylazetidine-3-carbonyl)piperazin-1-yl]methanone], the IC90 under setting [2] amounted to 1300 nM. Turning to `COc1ccc(-c2cnc3c(Nc4ccc(C(=O)N5CCN(CCN(C)C)CC5)c(C)c4)nccn23)c(F)c1F` [Example 27], the IC90 under setting [1] worked out at 160 nM. Still for that read-out and setting: the value for `COc1ccc(-c2cnc3c(Nc4ccc(C(=O)NC5CC6(CNC6)C5)c(C)c4)nccn23)cc1F` [Example 414, N-(2-azaspiro[3.3]heptan-6-yl)-4-[[3-(3-fluoro-4-methoxyphenyl)imidazo[1,2-a]pyrazin-8-yl]amino]-2-methylbenzamide; hydrochlo-ride] was 770 nM. Turning to `Cc1cc(Nc2nccn3c(-c4ccc(OC(F)F)cc4)cnc23)ccc1C(=O)N1CCN(C(=O)[C@@H]2CNCCO2)CC1` [Example 341, [4-[[3-[4-(difluoromethoxy)phenyl]imi-dazo[1,2-a]pyrazin-8-yl]amino]-2-methylphenyl]-[4-[(2S)-morpholine-2-carbonyl]piperazin-1-yl]methanone; hydrochloride], the IC90 under setting [2] was found to be 520 nM. On the same count and under the same terms, the value for `COc1cc(Cl)c(-c2cnc3c(Nc4ccc(C(=O)N5CCC(CN)CC5)c(C)c4)nccn23)cc1F` [Example 26, [4-(aminomethyl)-1-piperidyl]-[4-[[3-(2-chloro-5-fluoro-4-methoxy-phenyl)imidazo[1,2-a]pyrazin-8-yl]amino]-2-methyl-phenyl]methanone hydrochloride] was 370 nM; that for `COc1ccc(-c2cnc3c(Nc4ccc(C(=O)N5CCN(C(=O)[C@@H]6C[C@@H](OC(=O)[C@@H](N)CCC(N)=O)CN6)CC5)c(C)c4)nccn23)c(F)c1F` [Example 565, [(3R,5S)-5-[4-[4-[[3-(2,3-difluoro-4-methoxy-phenyl)imidazo[1,2-a]pyrazin-8-yl]amino]-2-methyl-benzoyl]piperazine-1-carbonyl]pyrrolidin-3-yl] (2S)-2,5-diamino-5-oxo-pentanoate formate] was 109 nM. Take `Cc1cc(Nc2nccn3c(-c4ccc(OCC#N)c(F)c4F)cnc23)ccc1C(=O)N1CCN(C(=O)[C@@H]2C[C@](C)(O)CN2)CC1` [Example 230, 2-[2,3-difluoro-4-[8-[4-[4-[(2S,4S)-4-hydroxy-4-methyl-pyrrolidine-2-carbonyl]piperazine-1-carbonyl]-3-methyl-anilino]imidazo[1,2-a]pyrazin-3-yl]phenoxy] acetonitrile formate]: the IC90 under setting [1] was determined as 63 nM.
